The values below come from PubChem BioAssay AID1159568 (Broad Institute, 2015).

This test deals with P. falciparum Dd2 in erythrocytes, SYBR Green growth, 72 h. In words: P. falciparum Dd2 growth inhibitors, dose response, SYBR Green, dry powder samples, set 9 (AID 1159568).

By EC50 is commonly meant the concentration that produces a half-maximal response.

Structures are written as SMILES. Results filed as inconclusive are left out. The source made the active and inactive calls.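 Rule for the calls: active = signal loss with an EC50 at or below twice the highest valid dose for that sample; inconclusive = flat curve with 30 to 70% inhibition, or poor fit; inactive = the rest.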

`O=C(C[C@H]1C[C@H]2c3cc(NC(=O)c4ccc5c(c4)OCO5)ccc3O[C@H]2[C@H](CO)O1)NCc1ccc(Oc2ccccc2)cc1`: the EC50 is > 39 µM (inactive).
